Data taken from US20240294542A1, “NLRP3 INFLAMMASOME INHIBITOR AND APPLICATION THEREOF” (TransThera Sciences (Nanjing), Inc., priority 2021, published 2024).

System: NLRP3 inflammasomes
Experiment: Inhibitory activity against NLRP3 inflammasome in THP-1 cells (LPS/nigericin stimulation, IL-1β ELISA)
Assay type: cell-based
Conditions: PMA-differentiated THP-1 cells; LPS 500 ng/mL 3 h, compound 1 h, nigericin 10 μg/mL 30 min; human IL-1β in supernatant by Elisa; read-out: IC50 (nM), inhibitory activities against NLRP3 in THP-1 cells
Description: Test Samples: The compounds of the present invention prepared according to exemplary methods.
THP-1 is Immortalized Human Macrophage Cell Line
• Test instrument: microplate reader (made from PE)
• 1. […] Culture plate coating: 100 μL polylysine solution was added into a 96-well cell culture plate, and the reaction was carried out at 37° C. for 30 min. The solution was discarded, and PBS was washed twice for later use. • 3. […] The resulting mixture was uniformly mixed, and finally diluted by 1:1000 times, and the cells were placed in a carbon dioxide cell incubator at 37° C. and cultured for 1 h. • c. Nigericin was added to each well at a final concentration of 10 μg/mL, and the plate was placed in a carbon dioxide cell incubator at 37° C. and cultured for 30 min. • d. The media in wells were transferred to a new culture plate, and then the plate was centrifuged at 3000 rpm for 5 min. Then the supernatant was transferred to a new 96-well plate. • e. The collected cell culture supernatant samples were tested for the content of human IL-1β by using a commercial Elisa kit, as specified in the instructions.

In the case of `N#Cc1ccc(-c2nnc(N[C@@H]3CCCOC3)c3ccccc23)c(O)c1` [Compound 112, (R)-3-hydroxy-4-(4-((tetrahydro-2H-pyran-3-yl)amino)phthalazin-1-yl)benzonitrile], the IC50 is reported as 16 nM.

For `Cc1ccc(-c2nnc(N[C@@H]3CCCN(C)C3)c3c2C2CCC3CC2)c(O)c1` [Compound 6a, (R)-5-methyl-2-(4-((1-methylpiperidin-3-yl)amino)-5,6,7,8-tetrahydro-5,8-ethanophthalazin-1-yl)phenol], the IC50 was 1 nM.

`CN1CCC[C@@H](Nc2nnc(-c3ccc(Br)cc3O)c3ccccc23)C1` [Compound 73, (R)-5-bromo-2-(4-((1-methylpiperidin-3-yl)amino)phthalazin-1-yl)phenol] gave an IC50 of 1 nM.

With `Cc1ccc(-c2nnc(N[C@@H]3CCCN(C)C3)c3c2CCCCC3)c(O)c1` [Compound 26a, (R)-5-methyl-2-(4-((1-methylpiperidin-3-yl)amino)-6,7,8,9-tetrahydro-5H-cyclohepta[d]pyridazin-1-yl)phenol] the IC50 was 4 nM.

Work on `Cc1ccc(-c2nnc(N[C@@H]3CCCN(C)C3)c3sccc23)c(O)c1` [Compound 70, (R)-5-methyl-2-(7-((1-methylpiperidin-3-yl)amino)thieno[2,3-d]pyridazin-4-yl)phenol] yielded an IC50 of 1 nM.

`COc1ccc2c(-c3ccc(C)cc3O)nnc(N[C@@H]3CCCN(C)C3)c2c1` [Compound 16, (R)-2-(6-methoxy-4-((1-methylpiperidin-3-yl)amino)phthalazin-1-yl)-5-methylphenol] showed an IC50 of 7 nM.

With `Cc1ccc(-c2nnc(N[C@@H]3CCCN(C)C3)c3cc(C4CC4)ccc23)c(O)c1` [Compound 32, (R)-2-(6-cyclopropyl-4-((1-methylpiperidin-3-yl)amino)phthalazin-1-yl)-5-methylphenol] the IC50 was 15 nM.

For `Cc1ccc(-c2nnc(N[C@@H]3CCCN(C)C3)c3ncccc23)c(O)c1` [Compound 38, (R)-5-methyl-2-(8-((1-methylpiperidin-3-yl)amino)pyrido[2,3-d]pyridazin-5-yl)phenol], the IC50 was 12 nM.

For `CN1CCC[C@@H](Nc2nnc(-c3ccc(C4CC4)cc3O)c3ccccc23)C1` [Compound 72, (R)-5-cyclopropyl-2-(4-((1-methylpiperidin-3-yl)amino)phthalazin-1-yl)phenol], the IC50 was 1 nM.

With `Cc1ccc(-c2nnc(N[C@@H]3CCCN(C)C3)c3cc(C(F)(F)F)ccc23)c(O)c1` [Compound 24, (R)-5-methyl-2-(4-((1-methylpiperidin-3-yl)amino)-6-(trifluoromethyl)phthalazin-1-yl)phenol] the IC50 was 14 nM.

`CN1CCC[C@@H](Nc2nnc(-c3ccc(C4CC4)cc3O)c3c2CCCC3)C1` [Compound 5a, (R)-5-cyclopropyl-2-(4-((1-methylpiperidin-3-yl)amino)-5,6,7,8-tetrahydrophthalazin-1-yl)phenol] was tested, and the IC50 was 5 nM.

`Cc1ccc(-c2nnc(N[C@@H]3CCCN(C)C3)c3c(C)cccc23)c(O)c1` [Compound 5, (R)-5-methyl-2-(5-methyl-4-((1-methylpiperidin-3-yl)amino)phthalazin-1-yl)phenol] gave an IC50 of 14 nM.

`CN1CCC[C@@H](Nc2nnc(-c3ccc(C#N)cc3O)c3sccc23)C1` [Compound 78, (R)-3-hydroxy-4-(4-((1-methylpiperidin-3-yl)amino)thieno[2,3-d]pyridazin-7-yl)benzonitrile] gave an IC50 of 2 nM.

With `CN1CCC[C@@H](Nc2nnc(-c3ccc(C#N)cc3O)c3ccsc23)C1` [Compound 77, (R)-3-hydroxy-4-(7-((1-methylpiperidin-3-yl)amino)thieno[2,3-d]pyridazin-4-yl)benzonitrile] the IC50 was 2 nM.

Work on `CN1CCC[C@@H](Nc2nnc(-c3ccc(C(F)F)cc3O)c3c2CCCC3)C1` [Compound 15a, (R)-5-(difluoromethyl)-2-(4-((1-methylpiperidin-3-yl)amino)-5,6,7,8-tetrahydrophthalazin-1-yl)phenol] yielded an IC50 of 2 nM.

`CC(C)N1CCC[C@@H](Nc2nnc(-c3ccc(C#N)cc3O)c3ccccc23)C1` [Compound 125, (R)-3-hydroxy-4-(4-((1-isopropylpiperidin-3-yl)amino)phthalazin-1-yl)benzonitrile] showed an IC50 of 3 nM.

Compound `Cc1ccc(-c2nnc(N[C@@H]3CCCN(C)C3)c3cc(F)ccc23)c(O)c1` [Compound 8, (R)-2-(6-fluoro-4-((1-methylpiperidin-3-yl)amino)phthalazin-1-yl)-5-methylphenol] has an IC50 of 3 nM.

`Cc1ccc2c(-c3ccc(C#N)cc3O)nnc(N[C@@H]3CCCN(C)C3)c2c1` [Compound 55, (R)-3-hydroxy-4-(6-methyl-4-((1-methylpiperidin-3-yl)amino)phthalazin-1-yl)benzonitrile] gave an IC50 of 4 nM.

`Cc1ccc(-c2nnc(N[C@@H]3CCCN(C)C3)c3c(Br)cccc23)c(O)c1` [Compound 34, (R)-2-(5-bromo-4-((1-methylpiperidin-3-yl)amino)phthalazin-1-yl)-5-methylphenol] was tested, and the IC50 was 8 nM.

Work on `Cc1ccc(-c2nnc(N[C@@H]3CCCN(C)C3)c3ccccc23)c(O)c1` [Compound 1, (R)-5-methyl-2-(4-((1-methylpiperidin-3-yl)amino)phthalazin-1-yl)phenol] yielded an IC50 of 1.8 nM.

Work on `CN1CCC[C@@H](Nc2nnc(-c3ccc(C4CC4)cc3O)c3ccncc23)C1` [Compound 95, (R)-5-cyclopropyl-2-(4-((1-methylpiperidin-3-yl)amino)pyrido[3,4-d]pyridazin-1-yl)phenol] yielded an IC50 of 1 nM.

With `COc1ccc(-c2nnc(N[C@@H]3CCCN(C)C3)c3ccccc23)c(O)c1` [Compound 74, (R)-5-methoxy-2-(4-((1-methylpiperidin-3-yl)amino)phthalazin-1-yl)phenol] the IC50 was 6 nM.

`C[C@]1(O)C[C@@H](Nc2nnc(-c3ccc(C(F)(F)F)cc3O)c3c2CCCC3)C1` [Compound 32a, 2-(4-(((cis)-3-hydroxy-3-methylcyclobutyl)amino)-5,6,7,8-tetrahydrophthalazin-1-yl)-5-(trifluoromethyl)phenol] was tested, and the IC50 was 7 nM.

For `Cc1ccc(-c2nnc(N[C@@H]3CCCN(C)C3)c3c(F)cccc23)c(O)c1` [Compound 9, (R)-2-(5-fluoro-4-((1-methylpiperidin-3-yl)amino)phthalazin-1-yl)-5-methylphenol], the IC50 was 3 nM.

For `Cc1ccc(-c2nnc(N[C@@H]3CCCN(C)C3)c3cc(C)ccc23)c(O)c1` [Compound 4, (R)-5-methyl-2-(6-methyl-4-((1-methylpiperidin-3-yl)amino)phthalazin-1-yl)phenol], the IC50 was 9 nM.

`Cc1ccc2c(-c3ccc(Br)cc3O)nnc(N[C@@H]3CCCN(C)C3)c2c1` [Compound 88, (R)-5-bromo-2-(6-methyl-4-((1-methylpiperidin-3-yl)amino)phthalazin-1-yl)phenol] gave an IC50 of 1 nM.

Work on `Cc1ccc(-c2nnc(N[C@@H]3CCCN(C)C3)c3ccc(C)cc23)c(O)c1` [Compound 3, (R)-5-methyl-2-(7-methyl-4-((1-methylpiperidin-3-yl)amino)phthalazin-1-yl)phenol] yielded an IC50 of 24 nM.

Work on `Cc1ccc2c(N[C@@H]3CCCN(C)C3)nnc(-c3ccc(C#N)cc3O)c2c1` [Compound 54, (R)-3-hydroxy-4-(7-methyl-4-((1-methylpiperidin-3-yl)amino)phthalazin-1-yl)benzonitrile] yielded an IC50 of 13 nM.

`Cc1ccc(-c2nnc(N[C@@H]3CCCN(C)C3)c3c2CCCC3)c(O)c1F` [Compound 29a, (R)-2-fluoro-3-methyl-6-(4-((1-methylpiperidin-3-yl)amino)-5,6,7,8-tetrahydrophthalazin-1-yl)phenol] showed an IC50 of 1 nM.

`Cc1cc(C#N)ccc1-c1nnc(N[C@@H]2CCCN(C)C2)c2ccccc12` [Compound 118, (R)-3-methyl-4-(4-((1-methylpiperidin-3-yl)amino)phthalazin-1-yl)benzonitrile] gave an IC50 of 23 nM.

Work on `CN1CCC[C@@H](Nc2nnc(-c3ccc(Cl)cc3O)c3ccccc23)C1` [Compound 101, (R)-5-chloro-2-(4-((1-methylpiperidin-3-yl)amino)phthalazin-1-yl)phenol] yielded an IC50 of 5 nM.

`Cc1ccc(-c2nnc(N[C@@H]3CCCN(C)C3)c3cc(Br)ccc23)c(O)c1` [Compound 60, (R)-2-(6-bromo-4-((1-methylpiperidin-3-yl)amino)phthalazin-1-yl)-5-methylphenol] showed an IC50 of 13 nM.

In the case of `N#Cc1ccc(-c2nnc(N[C@@H]3CCCN(C4CCOCC4)C3)c3ccccc23)c(O)c1` [Compound 124, (R)-3-hydroxy-4-(4-((1-(tetrahydro-2H-pyran-4-yl)piperidin-3-yl)amino)phthalazin-1-yl)benzonitrile], the IC50 is reported as 5 nM.

Compound `CN1CCC[C@@H](Nc2nnc(-c3ccc(F)cc3O)c3c2CCCC3)C1` [Compound 24a, (R)-5-fluoro-2-(4-((1-methylpiperidin-3-yl)amino)-5,6,7,8-tetrahydrophthalazin-1-yl)phenol] has an IC50 of 1 nM.

`Cc1ccc(-c2nnc(N[C@@H]3CCCN(C)C3)c3ccncc23)c(O)c1` [Compound 49, (R)-5-methyl-2-(1-((1-methylpiperidin-3-yl)amino)pyrido[3,4-d]pyridazin-4-yl)phenol] showed an IC50 of 9 nM.

`CN1CCC[C@@H](Nc2nnc(-c3ccc(C#N)cc3O)c3c2CCCC3)C1` [Compound 2a, (R)-3-hydroxy-4-(4-((1-methylpiperidin-3-yl)amino)-5,6,7,8-tetrahydrophthalazin-1-yl)benzonitrile] was tested, and the IC50 was 3 nM.

With `CN1CCC[C@@H](Nc2nnc(-c3ccc(F)c(F)c3O)c3c2CCCC3)C1` [Compound 31a, (R)-2,3-difluoro-6-(4-((1-methylpiperidin-3-yl)amino)-5,6,7,8-tetrahydrophthalazin-1-yl)phenol] the IC50 was 6 nM.
